Reference: article PMC9804470, “A Formylglycine‐Peptide for the Site‐Directed Identification of Phosphotyrosine‐Mimetic Fragments” (Chemistry (Weinheim an Der Bergstrasse, Germany), 2022)
“Also recorded” adds a separate entry of the source. *1 amine or outer side, *2 acyl side, *3 side chain or, on linkers, in order; H or OH if unused. [ ]: non-standard residue; d: D form. F2Pmp = N[C@@H](Cc1ccc(C(F)(F)P(=O)(O)O)cc1)C(=O)O; fGly = 2-formylglycine, O=C[C@H](N[*:1])C(=O)[*:2]; Dap = NC[C@H](N)C(=O)O

Legend:
PTP1B = target: T1, PTP1B (Homo sapiens, UniProt P18031); test: Dynamic ligation screening of nucleophilic fragments with formylglycine peptide 3, PTP1B; type: biochemical; settings: 3 100 μM pre-incubated 5 min, fragment 200 μM, 30 min RT before DiFMUP, triplicates
T1 construct: catalytic domain of human PTP1B (amino acids 1–321); His7 (N, cleaved yes); made in house; host or cells: E. coli Rosetta (DE3)
T1 sequence (P18031 1-321): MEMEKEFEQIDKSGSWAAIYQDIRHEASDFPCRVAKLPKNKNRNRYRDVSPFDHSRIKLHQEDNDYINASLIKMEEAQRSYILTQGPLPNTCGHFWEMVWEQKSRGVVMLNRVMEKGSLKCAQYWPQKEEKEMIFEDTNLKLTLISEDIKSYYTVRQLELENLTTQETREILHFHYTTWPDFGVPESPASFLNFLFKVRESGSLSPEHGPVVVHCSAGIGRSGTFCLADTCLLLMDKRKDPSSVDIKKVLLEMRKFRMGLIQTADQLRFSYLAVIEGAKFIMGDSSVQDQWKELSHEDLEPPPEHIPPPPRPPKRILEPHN
Experimental: (§1) Enzyme activity assays of SHP2 and PTP1B: The catalytic activity of SHP2 catalytic domain and PTP1B were monitored using the fluorogenic substrate DiFMUP (6,8‐difluoro‐4‐methylumbelliferyl phosphate). Phosphatase reactions were performed at room temperature in 384‐well black plate, clear flat bottom, low flange, non‐binding surface (Corning, Cat# 3766) using a final volume of 20 μL and the following assay buffer conditions: 50 mM MOPS, pH=6.5, 200 mM NaCl, 50 μM TCEP, 0.03 % Tween‐20 (freshly added prior to each measurement). Test compounds were dissolved in DMSO or buffer at stock concentrations of 50, 20 or 10 mM and serially diluted. Enzyme (5 nM PTP1B or 2.5 nM SHP2 catalytic domain) and different concentrations of the tested compounds were incubated in buffer for 30–60 min at room temperature. Measurements were performed with a final concentration of 2.5 % DMSO unless stated otherwise at 37 °C and were performed in triplicate. Enzymatic reactions were started by adding DiFMUP (Invitrogen, cat# D6567) concentrations matching the experimentally determined KM values of the enzymes of 67 μM (PTP1B) or 72 μM (SHP2). Samples were excited at a wavelength of 360 nm and emitted fluorescence was recorded at 460 for 10 min using a microplate reader (infinite M1000 Pro, Tecan). Initial slope of fluorescence was determined in triplicate and IC50 values were calculated with GraphPad Prism 5. Determined IC50 values were converted into the corresponding KI values applying the Cheng Prusoff equation KI =IC50 /(1+[S]/KM ).
(§2) Dynamic ligation screening of nucleophilic fragments with 3: Under assay conditions described above, PTP1B or SHP2 were pre‐incubated with 3 (100 μM) for 5 min. Subsequently, (200 μM) of the respective fragments were added and the resulting mixtures were incubated for 30 min at RT, prior to DiFMUP addition.

SHP2 = target: T2, SHP2 (Homo sapiens, UniProt Q06124); test: Dynamic ligation screening of nucleophilic fragments with formylglycine peptide 3, SHP2; type: biochemical; settings: 3 100 μM pre-incubated 5 min, fragment 200 μM, 30 min RT before DiFMUP, triplicates
T2 construct: catalytic domain of human SHP2 (amino acids 225–541); His10 (N); made in house; host or cells: E. coli B21 (DE3)
T2 sequence (Q06124 225-541): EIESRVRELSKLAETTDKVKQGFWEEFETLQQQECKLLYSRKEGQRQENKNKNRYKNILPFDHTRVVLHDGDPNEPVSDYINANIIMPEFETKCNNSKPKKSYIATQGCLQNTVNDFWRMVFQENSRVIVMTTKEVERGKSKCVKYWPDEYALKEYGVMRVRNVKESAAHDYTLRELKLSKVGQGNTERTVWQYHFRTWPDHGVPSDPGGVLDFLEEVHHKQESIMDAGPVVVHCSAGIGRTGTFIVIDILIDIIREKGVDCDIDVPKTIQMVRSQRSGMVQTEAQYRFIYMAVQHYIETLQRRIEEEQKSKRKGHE
Experimental: as §1, §2

[1] = system: HGF‐induced tyrosine phosphorylation of ERK 1/2 in HeLa cells; test: Western blot of p-ERK in HGF-stimulated HeLa cells; type: cell-based; settings: 1 h treatment, Western blot, DMSO control
Experimental: Cellular experiments: HeLa cells were cultivated in DMEM buffer with 10 % FCS in 75 cm^2 cell culture flasks at 37 °C, 5 % CO2. At confluency of about 75 %, cells were seeded in a density of 250,000 cells/mL in 6‐well plates and incubated for 24 h. Subsequently, medium was removed and replaced by DMEM buffer with 0.1 % BSA (1 mL per well) and incubated for another 16 h. Hepatocyte growth factor (HGF, 20 ng/well) and test compounds in different final concentrations (1 μL, in DMSO) were added. Control wells received the same amount of DMSO (final concentration 0.1 %) or no addition. Plates were incubated for 1 h, then washed with cold PBS and shaken with lysis buffer (mPer reagent ThermoScientific # 78501 with 1 mM NaF, 2 mM Na3VO4, 25× protease inhibitor) for 5 min. Cell lysates were transferred to Eppendorf cups and centrifuged at 4 °C with 10,000 g for 10 min. […] The blot was incubated with anti‐phospo‐ERK as primary antibody (Cell Signaling # 9106, dilution 1 : 2000 in TBS‐Tween/ 2 % BSA) overnight at 4 °C, washed 3×5 min with TBS‐Tween, and incubated with anti‐mouse IgG‐hrp as secondary antibody (Santa Cruz # sc2031, 1 : 6000 in TBS‐ Tween/ 2 % BSA, RT, 1.5 h). The blot was again washed 3×5 min with TBS‐Tween and imaged with the ECL system (ThermoScientific # 34080) at Syngene PXi Imager. From the same lysis sample, under the same conditions, ERK 1/2 and β‐tubulin were blotted. For β‐tubulin, the antibody incubation time was adjusted to 2 h at RT.

SHP2 signaling = settings: cited from earlier work
Source text: (§3) Our next goal was to validate the three phosphotyrosine mimetics F1, F2, and F4 identified by fragment ligation screening as substructures of heterocyclic and cell‐penetrating SHP2‐inhibitors. The potent SHP2‐specific inhibitor GS‐493 was selected as a reference compound. […] In combination with a kinase inhibitor, GS‐493 ...

mammary gland tumors = settings: endogeneous cancer model; cited from earlier work
Source text: as §3

pancreas cancer = settings: in combination with a kinase inhibitor; cited from earlier work
Source text: as §3

[2] = target: T3, catalytic domain of human PTP1B (Homo sapiens, UniProt P18031); test: Enzyme activity assay of PTP1B with fluorogenic substrate DiFMUP; type: biochemical; settings: SD; read-out: KI PTP1B
T3 construct: catalytic domain of human PTP1B (amino acids 1–321); His7 (N, cleaved yes); made in house; host or cells: E. coli Rosetta (DE3)
T3 sequence (P18031 1-321): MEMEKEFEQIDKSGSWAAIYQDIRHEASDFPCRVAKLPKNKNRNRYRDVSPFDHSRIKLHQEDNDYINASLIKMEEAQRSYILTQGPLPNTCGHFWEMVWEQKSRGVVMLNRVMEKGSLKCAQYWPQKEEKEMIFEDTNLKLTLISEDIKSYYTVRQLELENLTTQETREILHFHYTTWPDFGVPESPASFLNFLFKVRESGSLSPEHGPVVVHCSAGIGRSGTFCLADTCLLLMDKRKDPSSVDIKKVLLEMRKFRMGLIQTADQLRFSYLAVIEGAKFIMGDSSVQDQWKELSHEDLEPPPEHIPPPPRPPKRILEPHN
Experimental: Protein Expression and purification: DNA encoding the catalytic domain of human PTP1B (amino acids 1–321) was subcloned into the pQLinkH vector. The gene encoding the N‐terminal His7‐tagged protein was over‐expressed at 17 °C in E. coli Rosetta (DE3). […] The His7‐tag was cleaved with tobacco etch virus protease at 20 °C prior to the gel‐filtration step. The catalytic domain of human SHP2 (amino acids 225–541) was purified from E. coli B21 (DE3). The overexpressed protein was fused to an N‐terminal His10‐tag. Cells were harvested and resuspended in 25 mM Tris‐HCl (pH=7.5), 50 mM NaCl, 1 % (v/v) Triton X‐100, 10 % (v/v) glycerol, 1 mM DTT. After cell lysis, debris was removed by centrifugation at 12,000 rpm for 30 min. The supernatant was filtered prior to affinity purification with Ni‐NTA agarose (Qiagen). The slurry was washed with 50 mM Tris‐HCl (pH=8.0), 500 mM NaCl supplemented with 25 mM imidazole. Reasonably pure protein was eluted with 200–300 mM imidazole. The purification was completed by size‐exclusion chromatography with a Superdex 75 16/600 column (GE Healthcare) equilibrated with 20 mM HEPES‐NaOH (pH=7.5), 50 mM NaCl, 1 mM DTT.
as §1

Solubility of peptide 3 = type: physicochemical; settings: in water, buffer, and DMSO; qualitative
peptide 16 = target: T4, peptide 16 (Homo sapiens, UniProt P00533, not fully specified (residue 5); also: formylglycine reductively aminated with aryl amine F4, place not in chain); test: DiFMUP enzyme inhibition assay
T4 chain: Ac-DADEYL-NH2

peptide 18 = target: T5, peptide 18 (Homo sapiens, UniProt P00533); test: DiFMUP enzyme inhibition assay
T5 chain: Ac-DADE[Dap](4‑trifluoromethylsulfonylamido‑phenyl)L-NH2

[3] = target: T6, peptide 2 Ac-DADE(PDFM-F)L-NH2 (Homo sapiens, UniProt P00533); test: DiFMUP enzyme inhibition assay
T6 chain: Ac-DADE[F2Pmp]L-NH2

formylglycine peptide 3 = target: T7, formylglycine peptide 3 (Homo sapiens, UniProt P00533); test: DiFMUP enzyme inhibition assay
T7 chain: Ac-DADE[fGly]L-NH2

peptide 17 = target: T8, peptide 17 (Homo sapiens, UniProt P00533, not fully specified (residue 5); also: reduced Knoevenagel product of formylglycine with barbituric acid, place not in chain); test: DiFMUP enzyme inhibition assay
T8 chain: Ac-DADEYL-NH2

peptide 15 = target: T9, peptide 15 (Homo sapiens, UniProt P00533, not fully specified (residue 5); also: formylglycine reductively aminated with 4-amino-phenyl-acetic acid F1, place not in chain); test: DiFMUP enzyme inhibition assay
T9 chain: Ac-DADEYL-NH2

For `Nc1ccc(OCC(=O)O)cc1` [Compound F4, 4‐amino‐phenoxyacetic acid], the “Enhancement of inhibition of PTP1B by fragment in combination with peptide 3 (fragment ligation assay)” value (PTP1B) was “over‐additive inhibition; also recorded: super‐additive inhibition” and the “Enhancement of inhibition of SHP2 by fragment in combination with peptide 3 (fragment ligation assay)” value (SHP2) was “over‐additive inhibition; also recorded: super‐additive inhibition”.

In the case of `O=C1/C(=N\Nc2ccc(S(=O)(=O)O)cc2)C(c2ccc([N+](=O)[O-])cc2)=NN1c1ccc([N+](=O)[O-])cc1` [GS‐493], the “Effect on HGF‐induced tyrosine phosphorylation of ERK 1/2” value [1] is listed as “decreased”, the “Block of SHP2 signaling in cancer cells and animal models” value (SHP2 signaling) is listed as “able to block SHP2 signaling” and the “Effect on development of mammary gland tumors” value (mammary gland tumors) is listed as “able to block the development of mammary gland tumors”. The “Effect on pancreas cancer” value (pancreas cancer) was “able to suppress pancreas cancer”.

In the case of `CC(=O)N[C@@H](CC(=O)O)C(=O)N[C@@H](C)C(=O)N[C@@H](CC(=O)O)C(=O)N[C@@H](CCC(=O)O)C(=O)NC(C=O)C(=O)N[C@@H](CC(C)C)C(N)=O` (some centres unmarked) [Compound 3, N‐Acetyl‐L‐aspartyl‐L‐alaninyl‐L‐aspartyl‐L‐glutamyl‐2‐formylglycyl‐L‐leucinyl‐amide], the Ki [2] is reported as 484 ± 30 µM and the Solubility (Solubility of peptide 3) is reported as “highly soluble”.

B1: PTP1B 1-321 (protein)
chain: MEMEKEFEQIDKSGSWAAIYQDIRHEASDFPCRVAKLPKNKNRNRYRDVSPFDHSRIKLHQEDNDYINASLIKMEEAQRSYILTQGPLPNTCGHFWEMVWEQKSRGVVMLNRVMEKGSLKCAQYWPQKEEKEMIFEDTNLKLTLISEDIKSYYTVRQLELENLTTQETREILHFHYTTWPDFGVPESPASFLNFLFKVRESGSLSPEHGPVVVHCSAGIGRSGTFCLADTCLLLMDKRKDPSSVDIKKVLLEMRKFRMGLIQTADQLRFSYLAVIEGAKFIMGDSSVQDQWKELSHEDLEPPPEHIPPPPRPPKRILEPHN
B1 gave a Ki (peptide 16) of 213 µM, a Ki (peptide 18) of 202 µM and a Ki [3] of 1400 nM. The Ki (formylglycine peptide 3) was 484 µM, the Ki (peptide 17) was 123 µM and the Ki (peptide 15) was 138 µM.
